Converted amounts (≈) assume the structure as drawn.
What was measured:
Solubility assay = type: physicochemical; conditions: 0.067 M phosphate buffer pH 6.5, 24 hours shaking, from 10 mM DMSO stock; for solubility at 24 h: aqueous buffer, kinetic from dmso stock
Protocol: After centrifugation, the supernatant was analyzed by HPLC-UV. The solubility was defined as the concentration of the test substance in the selected solvent. It was determined by correlation with an external standard calibration curve.

[1] = Human liver microsome (HLM) clearance assay; type: in vitro ADME; conditions: human liver microsomes 0.5 mg/mL, NADPH 1 mM, 0.5 μM compound, 40 min
Protocol: Example 63: Human Liver Microsome (HLM) Clearance Assay
Samples were taken out before addition of NADPH, and at 5, 10, 20 and 40 minutes thereafter and protein precipitation using cold acetonitrile with added internal standard was performed prior to centrifugation and sample analysis using compound specific LCMS/MS methods. Control incubations in buffer and without NADPH were performed in the same manner. Compound depletion was determined and apparent clearance (CLapp) was calculated.

recombinant IL-17AA = target: T1, recombinant IL-17AA (Homo sapiens, UniProt Q16552); test: Inhibition of recombinant IL-17AA-induced SEAP reporter gene activity in HEK-Blue IL-17 cells; type: cell-based; conditions: recombinant IL-17A 2 ng/ml, overnight
T1 construct: purchased R&D Systems 7955-IL
T1 sequence (Q16552 24-155): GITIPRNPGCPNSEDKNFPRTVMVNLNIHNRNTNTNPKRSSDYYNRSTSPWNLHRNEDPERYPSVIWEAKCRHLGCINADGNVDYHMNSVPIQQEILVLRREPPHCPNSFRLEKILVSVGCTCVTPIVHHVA
Protocol: Example 62: Inhibition of Recombinant IL-17AA-Induced SEAP Reporter Gene Activity in HEK-Blue™ IL-17 Cells
The assay was run according to the protocol provided by InvivoGen. Briefly, the HEK-Blue™ IL-17 cells (Invivogen, cat #hkb-il17) were suspended in the complete culture medium and seeded in a 96 well plate in a volume of 80 μl in a density of 50,000 cells per well the day before the assay. 10 μl of a solution of the test compounds were added in a serial gradient dilution to the cells followed by the addition of 10 μl IL-17A (R&D Systems cat #7955-IL) in a final concentration of 2 ng/ml. The plate was incubated overnight. The QUANTI-Blue™ solution was used to determine the SEAP activity; 180 μl QUANTI-Blue™ solution and 20 μl of the supernatant from the cell plate were mixed and incubated for 1 hour at 37 degrees Celsius. SEAP levels were measured using a spectrophotometer at 650 nm.

## Cc1c(-c2ccc(NC(=O)[C@@H](NC(=O)c3ccnn3C(C)C)C(C3CC3)C3CC3)nc2F)cc(OC(F)F)c[n+]1[O-] [Example 8, N-[(1S)-1-(dicyclopropylmethyl)-2-[[5-[5-(difluoromethoxy)-2-methyl-1-oxido-pyridin-1-ium-3-yl]-6-fluoro-2-pyridyl]amino]-2-oxo-ethyl]-2-isopropyl-pyrazole-3-carboxamide]
Solubility assay
  solubility at 24 h: 8 µg/mL (≈ 14 µM)
[1]
  HLM Clapp: 8 mL/min/kg

## Cc1c(-c2ccc(NC(=O)[C@@H](NC(=O)c3ccnn3C(C)C)C(C3CC3)C3CC3)nc2F)cc(C(F)F)c[n+]1[O-] [Example 49, N-[(1S)-1-(dicyclopropylmethyl)-2-[[5-[5-(difluoromethyl)-2-methyl-1-oxido-pyridin-1-ium-3-yl]-6-fluoro-2-pyridyl]amino]-2-oxo-ethyl]-2-isopropyl-pyrazole-3-carboxamide]
Solubility assay
  solubility at 24 h: 18 µg/mL (≈ 32.3 µM)
[1]
  HLM Clapp: <8 mL/min/kg

## Cc1cc[n+]([O-])cc1-c1ccc(NC(=O)[C@@H](NC(=O)c2ccnn2C(C)C)C(C2CC2)C2CC2)nc1F [Example 15, N-[(1S)-1-(dicyclopropylmethyl)-2-[[6-fluoro-5-(4-methyl-1-oxido-pyridin-1-ium-3-yl)-2-pyridyl]amino]-2-oxo-ethyl]-2-isopropyl-pyrazole-3-carboxamide]
Solubility assay
  solubility at 24 h: 97 µg/mL (≈ 191 µM)
[1]
  HLM Clapp: <8 mL/min/kg

## COc1cc(-c2ccc(NC(=O)[C@@H](NC(=O)c3ccnn3C(C)C)C(C3CC3)C3CC3)nc2F)c(C)[n+]([O-])c1 [Example 1, N-[(1S)-1-(dicyclopropylmethyl)-2-[[6-fluoro-5-(5-methoxy-2-methyl-1-oxido-pyridin-1-ium-3-yl)-2-pyridyl]amino]-2-oxo-ethyl]-2-isopropyl-pyrazole-3-carboxamide]
Recombinant IL-17AA
  EC50: 11 nM
Solubility assay
  solubility at 24 h: 29 µg/mL (≈ 54 µM)
[1]
  HLM Clapp: 12 mL/min/kg

## Cc1cc(-c2ccc(NC(=O)[C@@H](NC(=O)c3ccnn3C(C)C)C(C3CC3)C3CC3)nc2F)c(C)[n+]([O-])c1 [Example 3, N-[(1S)-1-(dicyclopropylmethyl)-2-[[5-(2,5-dimethyl-1-oxido-pyridin-1-ium-3-yl)-6-fluoro-2-pyridyl]amino]-2-oxo-ethyl]-2-isopropyl-pyrazole-3-carboxamide]
Recombinant IL-17AA
  EC50: 17 nM
Solubility assay
  solubility at 24 h: 45 µg/mL (≈ 86.4 µM)
[1]
  HLM Clapp: <8 mL/min/kg

## CCc1c(-c2ccc(NC(=O)[C@@H](NC(=O)c3ccnn3C(C)C)C(C3CC3)C3CC3)nc2F)cc(OC)c[n+]1[O-] [Example 60, N-[(1S)-1-(dicyclopropylmethyl)-2-[[6-fluoro-5-(5-methoxy-2-ethyl-1-oxido-pyridin-1-ium-3-yl)-2-pyridyl]amino]-2-oxo-ethyl]-2-isopropyl-pyrazole-3-carboxamide]
Recombinant IL-17AA
  EC50: 31 nM

## Cc1cc[n+]([O-])c(C)c1-c1ccc(NC(=O)[C@@H](NC(=O)c2ccnn2C(C)C)C(C2CC2)C2CC2)nc1F [Example 4, N-[(1S)-1-(dicyclopropylmethyl)-2-[[5-(2,4-dimethyl-1-oxido-pyridin-1-ium-3-yl)-6-fluoro-2-pyridyl]amino]-2-oxo-ethyl]-2-isopropyl-pyrazole-3-carboxamide]
Solubility assay
  solubility at 24 h: 74 µg/mL (≈ 142 µM)
[1]
  HLM Clapp: 9 mL/min/kg

## CC(C)n1nccc1C(=O)N[C@H](C(=O)Nc1ccc(-c2c[n+]([O-])ccc2C(F)(F)F)c(F)n1)C(C1CC1)C1CC1 [Example 6, N-[(1S)-1-(dicyclopropylmethyl)-2-[[6-fluoro-5-[1-oxido-4-(trifluoromethyl)pyridin-1-ium-3-yl]-2-pyridyl]amino]-2-oxo-ethyl]-2-isopropyl-pyrazole-3-carboxamide]
Solubility assay
  solubility at 24 h: 5 µg/mL (≈ 8.92 µM)
[1]
  HLM Clapp: 14 mL/min/kg

## Cc1cc[n+]([O-])c(C)c1-c1ccc(NC(=O)[C@@H](NC(=O)c2ccnn2C(C)C)C(C2CC2)C2CC2)nc1Cl (single isomer, unassigned) [Example 57]
Recombinant IL-17AA
  EC50: 740 nM
Solubility assay
  Solubility at pH 6.5: <1 μg/mL
[1]
  HLM Clapp: 18 mL/min/kg

## Cc1c(-c2ccc(NC(=O)[C@@H](NC(=O)c3ccnn3C(C)C)C(C3CC3)C3CC3)nc2F)cc(C#N)c[n+]1[O-] [Example 59, N-[(1S)-1-[[5-(5-cyano-2-methyl-1-oxido-pyridin-1-ium-3-yl)-6-fluoro-2-pyridyl]carbamoyl]-2,2-dicyclopropyl-ethyl]-2-isopropyl-pyrazole-3-carboxamide]
Recombinant IL-17AA
  EC50: 46 nM
Solubility assay
  solubility at 24 h: 29 µg/mL (≈ 54.6 µM)
[1]
  HLM Clapp: <9 mL/min/kg

## Cc1c(-c2ccc(NC(=O)[C@@H](NC(=O)c3ccnn3C(C)C)C(C3CC3)C3CC3)nc2F)cc(S(C)(=O)=O)c[n+]1[O-] [Example 58, N-[(1S)-1-(dicyclopropylmethyl)-2-[[6-fluoro-5-(2-methyl-5-methylsulfonyl-1-oxido-pyridin-1-ium-3-yl)-2-pyridyl]amino]-2-oxo-ethyl]-2-isopropyl-pyrazole-3-carboxamide]
Recombinant IL-17AA
  EC50: 100 nM
Solubility assay
  solubility at 24 h: 14 µg/mL (≈ 23.9 µM)
[1]
  HLM Clapp: 10 mL/min/kg

## Cc1c(-c2ccc(NC(=O)[C@@H](NC(=O)c3ccnn3C(C)C)C(C3CC3)C3CC3)nc2F)cc(Cl)c[n+]1[O-] [Example 11, N-[(1S)-1-[[5-(5-chloro-2-methyl-1-oxido-pyridin-1-ium-3-yl)-6-fluoro-2-pyridyl]carbamoyl]-2,2-dicyclopropyl-ethyl]-2-isopropyl-pyrazole-3-carboxamide]
Solubility assay
  solubility at 24 h: 6.5 µg/mL (≈ 12 µM)
[1]
  HLM Clapp: <8 mL/min/kg

## CC(C)n1nccc1C(=O)N[C@H](C(=O)Nc1ccc(-c2c[n+]([O-])ccc2C(F)F)c(F)n1)C(C1CC1)C1CC1 [Example 51, N-[(1S)-1-(dicyclopropylmethyl)-2-[[5-[4-(difluoromethyl)-1-oxido-pyridin-1-ium-3-yl]-6-fluoro-2-pyridyl]amino]-2-oxo-ethyl]-2-isopropyl-pyrazole-3-carboxamide]
Solubility assay
  solubility at 24 h: 25 µg/mL (≈ 46.1 µM)
[1]
  HLM Clapp: <8 mL/min/kg

## Cc1cc[n+]([O-])c(C)c1-c1ccc(NC(=O)[C@@H](NC(=O)c2ccnn2C(C)C)C(C2CC2)C2CC2)nc1Cl (single isomer, unassigned) [Example 56]
Recombinant IL-17AA
  EC50: 4.6 nM
Solubility assay
  solubility at 24 h: < 1 µg/mL
[1]
  HLM Clapp: 16 mL/min/kg

## CCc1cc[n+]([O-])cc1-c1ccc(NC(=O)[C@@H](NC(=O)c2ccnn2C(C)C)C(C2CC2)C2CC2)nc1F [Example 53, N-[(1S)-1-(dicyclopropylmethyl)-2-[[5-(4-ethyl-1-oxido-pyridin-1-ium-3-yl)-6-fluoro-2-pyridyl]amino]-2-oxo-ethyl]-2-isopropyl-pyrazole-3-carboxamide]
Solubility assay
  solubility at 24 h: 39 µg/mL (≈ 74.9 µM)
[1]
  HLM Clapp: <8 mL/min/kg

## Cc1c(-c2ccc(NC(=O)[C@@H](NC(=O)c3ccnn3C(C)C)C(C3CC3)C3CC3)nc2F)cc(C(F)(F)F)c[n+]1[O-] [Example 12, N-[(1S)-1-(dicyclopropylmethyl)-2-[[6-fluoro-5-[2-methyl-1-oxido-5-(trifluoromethyl)pyridin-1-ium-3-yl]-2-pyridyl]amino]-2-oxo-ethyl]-2-isopropyl-pyrazole-3-carboxamide]
Solubility assay
  solubility at 24 h: 6 µg/mL (≈ 10.4 µM)
[1]
  HLM Clapp: <8 mL/min/kg

## CCCn1nccc1C(=O)N[C@H](C(=O)Nc1ccc(-c2cc(C)c[n+]([O-])c2C)c(F)n1)C(C1CC1)C1CC1 [Example 20, N-[(1S)-1-(dicyclopropylmethyl)-2-[[5-(2,5-dimethyl-1-oxido-pyridin-1-ium-3-yl)-6-fluoro-2-pyridyl]amino]-2-oxo-ethyl]-2-propyl-pyrazole-3-carboxamide]
Solubility assay
  solubility at 24 h: 38 µg/mL (≈ 73 µM)
[1]
  HLM Clapp: 74 mL/min/kg

## CCc1c(-c2ccc(NC(=O)[C@@H](NC(=O)c3ccnn3C(C)C)C(C3CC3)C3CC3)nc2F)ccc[n+]1[O-] [Example 5, N-[(1S)-1-(dicyclopropylmethyl)-2-[[5-(2-ethyl-1-oxido-pyridin-1-ium-3-yl)-6-fluoro-2-pyridyl]amino]-2-oxo-ethyl]-2-isopropyl-pyrazole-3-carboxamide]
Solubility assay
  solubility at 24 h: 35 µg/mL (≈ 67.2 µM)
[1]
  HLM Clapp: <8 mL/min/kg
